Type in all cases: in vivo
In assay [1] the test system is Plutella xylostella. Briefly: Test Example 6: spray test on cabbage against Plutella xylostella larvae. As to conditions: 120 h, sprayed 20 mL/cup on cabbage, second instar larvae, 5 days at 25°C, read-out: Death rate. The method, then:
On the other hand, on cabbage at the third leaf stage planted in a polyethylene cup was sprayed, at a rate 20 mL/cup, the test drug solution. After the drug solution was dried, the foliage part was cut off, and then placed in a 50 mL volume cup. Five second instar larvae of Plutella xylostella were released into the cup, and the cup was sealed with a lid. After the cup was kept at 25°C for 5 days, the number of dead insects was counted. The death rate was calculated according to the following equation. Death rate (%) = (Number of deads insects/Number of tested insects) × 100 [formula]

Assay [2] concerns Adoxophyes orana fasciata. As to the kind of experiment: Test Example 7: spray test on apple tree against Adoxophyes orana fasciata larvae. As to conditions: in Malus domestica, 168 h, read-out: Death rate. The procedure:
The formulations of Compounds of Present Invention 1-2 and 1-3 as obtained in Formulation Example 5 were diluted with water, so as to have a concentration of the active ingredient of 500 ppm, to prepare a test spray solution.
On the other hand, an apple tree was planted in a plastic cup, and grown until the seventh-eighth true leaf was spread. To the apple tree was sprayed, at a rate of 20 mL/cup, the test drug solution. After the drug solution was dried, 60 first-instar larvae of Adoxophyes orana fasciata were released, and covered with a plastic cup the bottom of which was cut off and on which a filter paper was put, with the plastic cup cover placed upside-down. After 7 days, the number of dead insects was counted, and the death rate was calculated according to the following equation. Death rate (%) = (Number of deads insects/Number of tested insects) × 100 [formula]

Assay [3] has as its system Musca domestica. Briefly: Test Example 8: filter paper and sucrose bait test against Musca domestica. As to conditions: 24 h, read-out: Death rate. The method, then: The formulation of Compound of Present Invention 1-2 as obtained in Formulation Example 5 was diluted with water, so as to have a concentration of the active ingredient of 500 ppm, to prepare a test drug solution.
A filter paper having a diameter of 5.5 cm was spread on the bottom of a polyethylene cup having the same diameter and 0.7 ml of the test drug solution was added dropwise onto the filter paper, and 30 mg of sucrose was uniformly placed as bait. Into the polyethylene cup, 10 female imagoes of Musca domestica were released, and the cup was sealed with a lid. After 24 hours, the life and death of Musca domestica was examined, the number of dead insects was counted, and the death rate was calculated according to the following equation. Death rate (%) = (Number of deads insects/Number of tested insects) × 100 [formula]

In assay [4] the test system is Culex pipiens pallens. Briefly: Test Example 10: larvicidal test in water against Culex pipiens pallens. As to conditions: 24 h, active ingredient concentration 3.5 ppm in ion-exchanged water, last-instar larvae, one day later, read-out: Death rate. The procedure: The formulations of Compounds of Present Invention 1-2, 1-3 and 1-8 as obtained in Formulation Example 5 were diluted with water, so as to have a concentration of the active ingredient of 500 ppm, to prepare a test drug solution.
0.7 ml of the test drug solution was added to 100 ml of ion-exchanged water (active ingredient concentration: 3.5 ppm). 20 last-instar larvae of Culex pipiens pallens were released into the solution. One day later, the life and death of the Culex pipiens pallens was examined, and the number of dead insects was counted to calculate the death rate. Death rate (%) = (Number of deads insects/Number of tested insects) × 100 [formula]

The test system of assay [5] is Haemaphysalis longicornis. As to the kind of experiment: Test Example 11: coated screw tube contact test against Haemaphysalis longicornis ticks. The conditions noted are these: 48 h, 2 mg in 0.2 mL acetone coated on inner wall of screw tube, unfed nymphal ticks, after 2 days, read-out: Death rate. The procedure:
Compound of Present Invention 1-24 (2 mg) was weighed in a screw tube (Maruemu No. 5; 27 x 55 mm), and 0.2 mL of acetone was added thereto, and the screw tube was sealed with a cap to dissolve the compound. The screw tube was rotated and inverted to uniformly coat the drug solution onto the whole inner wall of the tube. After removing the cap, the solution was air-dried for about 2 hours, then unfed nymphal ticks, Haemaphysalis longicornis (5 ticks/group) were released, and the tube was sealed with the cap. After 2 days, the number of dead insects was counted, and the death rate was calculated according to the following equation. Death rate (%) = 100 × (Number of deads insects/Number of tested insects) [formula]

Regarding `CCS(=O)(=O)c1cc(C(=O)OC)ccc1-c1nc2cc(C(F)(F)F)cnc2n1C` [1-2], the mortality at 500 ppm in assay [1] was no less than 80%; in assay [2], no less than 90%; in assay [3], 100%. Also, the mortality at 3.5 ppm in assay [4] was no less than 95%.
With `CCOC(=O)c1ccc(-c2nc3cc(C(F)(F)F)cnc3n2C)c(S(=O)(=O)CC)c1` [1-3], the mortality at 500 ppm was no less than 80% in assay [1] and no less than 90% in assay [2]. Further, the mortality at 3.5 ppm in assay [4] was no less than 95%.
Turning to `CCOC(=O)c1ccc(-c2nc3cc(C(F)(F)F)ccc3n2C)c(S(=O)(=O)CC)c1` [1-8], the mortality at 3.5 ppm in assay [4] is no less than 95%.
Turning to `CCOC(=O)c1ccc(-c2nc3cc(C(F)(F)F)ccc3s2)c(S(=O)(=O)CC)c1` [1-24], the mortality at 2 mg/tube in assay [5] was determined as 100%.

(Values after patent EP2963022A1, “FUSED HETEROCYCLIC COMPOUND AND PEST CONTROL APPLICATIONS THEREOF” (priority 2013, dated 2014).)
